Assay results from PMC4788259 (PLoS Neglected Tropical Diseases, 2016).

tested on: E. multilocularis metacestodes; test: PGI assay: phosphoglucose isomerase release from damaged metacestodes; type: cell-based, Echinococcus multilocularis; settings: 10 μM, 5 days, single wells, relative to DB1127 (10 μM)
Experimental: The preparation of E. multilocularis metacestode material (strain H95) from intraperitoneally (i.p.) infected BALB/c mice was performed as described earlier. Metacestode vesicles were used for in vitro drug screening when they reached 2 to 4 mm in diameter.
For screening of the Malaria Box against E. multilocularis metacestodes, the PGI screening assay was applied that measures the release of the enzyme phosphoglucose isomerase (PGI) upon physical impairment of metacestodes. The screening setup was done in 24 well plates as described by Stadelmann et al. For initial screening, each drug was applied at 10 μM to metacestodes in single wells. As a positive control-drug, the dicationic diguanidino compound DB1127 (10 μM) was used and 0.1% DMSO was added as negative control. Metacestodes were cultured in the presence of the compounds for 5 days, after which PGI release was quantified exactly as stated in Stadelmann et al. […] Averages, standard deviations and EC50 values were calculated in Microsoft Excel 2010.

Row | Structure (SMILES) | PGI (% of DB1127 at 10 uM)
1 | CC(C)(C)c1ccc(C(=O)Nc2c3c(nn2-c2cccc(Cl)c2)CSC3)cc1 [MMV666123] | -7.56%
2 | COc1ccc2c(c1OC)C(=O)N1c3ccccc3N=C(c3ccc(C)cc3)CC21 (stereo not shown) [MMV000917] | -0.60%
3 | Cc1ccccc1OCCSc1nc2ccc(NC(=O)c3cccs3)cc2s1 [MMV007396] | -6.56%
4 | O=C(NC1CCN(Cc2ccccc2)CC1)c1cc(-c2ccncc2)nc2ccc(Cl)cc12 [MMV020275] | -18.74%
5 | CCC(=O)Nc1nnc(Cc2ccc(OC)c(OC)c2)s1 [MMV020942] | -6.11%
6 | CC(C)CNC(=O)c1c(N)n(CCc2ccccc2F)c2nc3ccccc3nc12 [MMV396744] | -10.23%
7 | CC(=O)c1ccc(NC(=O)CSc2nc(-c3ccccc3Cl)ns2)cc1 [MMV666124] | -5.85%
8 | CCOc1cc2c(cc1OCC)C(c1cc(Cl)c(O)c(OCC)c1)NCC2 (stereo not shown) [MMV000481] | -21.47%
9 | Cc1ccc2cc3c(N)c4c(C)ccc(C)c4nc3nc2c1 [MMV666079] | -43.85%
10 | CCOc1ccc(Nc2c3ccccc3nc3ccccc23)cc1.Cl [MMV000304] | 38.31%
11 | CC(C)(C)CC(C)(C)NCC(O)COc1ccc2c(c1)CCC2.Cl (stereo not shown) [MMV665817] | -44.11%
12 | COc1ccc(C2NCCc3c2[nH]c2ccccc32)cc1CN1CCN(c2ccc(F)cc2)CC1.Cl (stereo not shown) [MMV019690] | 51.28%
13 | CCOC(=O)c1cn(CC)c2cc(N3CCCCC3)c(F)cc2c1=O [MMV665827] | -20.29%
14 | OC(CNC1CCCCC1)Cn1c2ccccc2c2ccccc21 (stereo not shown) [MMV009063] | 29.02%
15 | COc1ccc(C(=O)NC(c2ccc(Cl)cc2Cl)c2cc(Cl)c3cccnc3c2O)cc1 (stereo not shown) [MMV666054] | 1.08%
16 | O=C(NC1CCN(Cc2ccccc2)CC1)c1cc(-c2cccnc2)nc2ccc(Cl)cc12 [MMV020490] | -15.64%
17 | CCOC(=O)c1ccc2[nH]c(-c3ccccc3)cc(=O)c2c1 [MMV006457] | 4.84%
18 | O=C(O)C(=O)O.Oc1ccc(Br)cc1CN1CCN(Cc2cccc(F)c2)CC1 [MMV000356] | -18.68%
19 | Cc1ccc(-c2cc3c(SCC(=O)Nc4cc(C(F)(F)F)ccc4Cl)nccn3n2)cc1 [MMV396680] | -41.44%
20 | Cc1ccc(C(=O)c2oc3ccc4c(C)cc(=O)oc4c3c2C)cc1 [MMV086103] | -6.30%
21 | CCCC(c1nnnn1C1CCCCC1)N1CCN(C(=O)c2ccco2)CC1.Cl (stereo not shown) [MMV666093] | -0.54%
22 | O=C(Nc1nc(-c2ccccn2)cs1)c1ccccc1Br [MMV665909] | -125.86%
23 | CCCCCn1c(=N)n(CC(O)COc2cccc(C)c2)c2ccccc21.Cl (stereo not shown) [MMV000444] | 66.85%
24 | Cc1ccc(Cn2c(N3CCC(C(=O)NCc4cccs4)CC3)nc3ccccc32)cc1 [MMV007564] | -118.82%

Row | Structure (SMILES) | PGI (% of DB1127 at 10 uM)
25 | CCOc1c(Br)cc(C2C(C(=O)OC)=CN(C)C=C2C(=O)OC)cc1OC [MMV006764] | -0.44%
26 | COc1ccc(NC(=O)C2c3ccccc3C(=O)N(CC(C)C)C2c2cccs2)cc1 (stereo not shown) [MMV000662] | -25.19%
27 | Oc1ccc(C(=C(Cl)Cl)c2ccc(O)cc2)cc1 [MMV665949] | 8.99%
28 | COc1ccc(-c2c(C)nn3c(N)c(C#N)cnc23)cc1OC [MMV396797] | -51.42%
29 | COc1cc(-c2nc(-c3ccccc3)c(-c3ccccc3)[nH]2)cc(OC)c1O [MMV020750] | 7.02%
30 | FC(F)(F)c1ccc(Nc2nnnc3ccccc23)cc1 [MMV665935] | -27.43%
31 | CCN(CC)c1cc(C)c2cc(NC(=O)c3cccc(OC)c3)ccc2n1 [MMV000498] | 4.05%
32 | Oc1c(C(Nc2ccccn2)c2cccc(Oc3ccccc3)c2)ccc2cccnc12 (stereo not shown) [MMV665814] | -6.04%
33 | O=C(Nc1ccsc1C(=O)NC1CCCCC1)c1ccc(F)cc1 [MMV665939] | -15.17%
34 | CCCc1c(CC)c(=N)c2ccccc2n1C [MMV008416] | -40.39%
35 | CC(C)(C)C(=O)Nc1ccc(C(=O)Nc2cccc(-c3nc4ccccc4[nH]3)c2)cc1 [MMV665879] | 17.15%
36 | O=c1cc(NC2CCN(CCCc3ccccc3)CC2)c2cc(Cl)ccc2o1 [MMV665786] | -0.88%
37 | O=C(Nc1ccccc1O)c1ccc(Oc2cccc(C(=O)Nc3ccccc3O)c2)cc1 [MMV665888] | -15.91%
38 | COc1ccc(NC(=O)C2c3ccccc3C(=O)N(CC(C)C)C2c2cccs2)cc1Cl (stereo not shown) [MMV000642] | -45.07%
39 | CCOC(=O)c1cnc2ccc(OC)cc2c1NCc1ccccc1 [MMV665813] | -12.77%
40 | CCCCCCC(O)(c1ccc(F)cc1)C(CN1CCOCC1)c1ccccc1.Cl (stereo not shown) [MMV000621] | -30.63%
41 | Cn1c(C(=O)c2cccc3ccccc23)nc2ccccc21 [MMV665824] | -1.12%
42 | Cc1cc(Nc2ccc(C)c(Cl)c2)n2nc(C(F)(F)F)nc2n1 [MMV665874] | -25.13%
43 | CCOc1ccccc1CNC(=O)C1c2ccccc2C(=O)N(CC(C)C)C1c1cccs1 (stereo not shown) [MMV000653] | -120.29%
44 | CN1CCN(c2ccc(Nc3c4ccccc4nc4ccccc34)cc2)CC1 [MMV006172] | 2.41%
45 | Cc1cc(N2CCCC2)nc(Nc2ccc(NC(=O)CCc3ccccc3)cc2)n1 [MMV396669] | -21.92%
46 | COc1ccc(-c2cc3c(nn2)-c2ccccc2C3=O)cc1 [MMV666026] | -10.04%
47 | COc1ccc(C(=O)Nc2nonc2-c2ccc(OC)c(OC)c2)cc1Cl [MMV011567] | -5.45%
48 | CC(Oc1ccc(NC(=O)c2cccs2)cc1)C(=O)c1ccc(Cl)cc1 (stereo not shown) [MMV665886] | 2.30%

Row | Structure (SMILES) | PGI (% of DB1127 at 10 uM)
49 | CCOc1ccc2nc(C)cc(Nc3ccc(N(C)C)cc3)c2c1.Cl [MMV007020] | -3.98%
50 | c1ccc2cc3c(Nc4ccc(N5CCOCC5)cc4)ccnc3cc2c1 [MMV006861] | -26.86%
51 | COc1ccc(CCn2c(=N)c(C(=O)NCc3cccnc3)cc3c(=O)n4cccc(C)c4nc32)cc1 [MMV667488] | -13.42%
52 | Cc1sc(NC(=O)c2ccccc2)c(C(c2cccs2)N2CCN(c3ccccc3)CC2)c1C (stereo not shown) [MMV396652] | -26.88%
53 | Cc1ccc(Nc2nc(-c3ccccn3)cs2)cc1 [MMV007907] | -25.32%
54 | OC(CNC1CCCC1)Cn1c2ccccc2c2ccccc21 (stereo not shown) [MMV000848] | 6.03%
55 | CC(C)(C)c1ccc(C(=O)Nc2nc3ccccc3s2)cc1 [MMV142383] | -17.15%
56 | CN(C)c1ccc(-c2nc3ccc(N)cc3[nH]2)cc1 [MMV666102] | -14.14%
57 | CCCn1c(=N)c(C(=O)NC2CCCCC2)cc2c(=O)n3cccc(C)c3nc21 [MMV008829] | -2.96%
58 | Cc1cc(N2CCN(C3CCCC3)CC2)n2c(nc3ccccc32)c1C#N [MMV006706] | -7.43%
59 | CCOC(=O)c1cnc2c(C)cccc2c1Nc1ccc(C(C)=O)cc1 [MMV006250] | -32.91%
60 | COc1ccc(Br)cc1C1Nc2ccc3ccccc3c2C2=C1C(=O)CC(c1ccccc1)C2 (stereo not shown) [MMV020885] | -45.01%
61 | O=C(Nc1cccc(-c2nc3ccccc3[nH]2)c1)c1cccc(NC(=O)c2ccco2)c1 [MMV665883] | 21.02%
62 | CC1=C(CC(=O)c2cccc([N+](=O)[O-])c2)C(=O)c2ccccc2C1=O [MMV666125] | -2.81%
63 | Cl.Oc1ccccc1CNCC12CC3CC(CC(C3)C1)C2 [MMV020788] | -57.58%
64 | CC(=O)Nc1nnc(SCc2c(C)cc(C(C)(C)C)cc2C)s1 [MMV020700] | 1.07%
65 | CC(=O)NCCc1nc2ccccc2n1Cc1ccc(C(C)C)cc1 [MMV007617] | -2.63%
66 | CCOC(=O)C1=C(C)N=c2sc(=Cc3cc(Cl)ccc3O)c(=O)n2C1c1ccc(OC)cc1 (stereo not shown) [MMV665971] | -11.30%
67 | CCC(O)c1ccc(Br)cc1NC(=O)c1cccc(Cl)c1 (stereo not shown) [MMV020654] | -1.89%
68 | CCOc1cccc(C(=O)Nc2ccc(-c3nc4ccccc4[nH]3)cc2)c1 [MMV019202] | -27.17%
69 | Cc1ccc(Nc2nc(N)c3ccccc3n2)cc1Cl [MMV011522] | 12.79%
70 | Cc1ccc(CN2CCC(C(=O)Nc3ccc(-c4cc5ccccc5[nH]4)cc3)CC2)o1 [MMV666071] | -52.95%
